From ChEMBL document CHEMBL5226369, “Tetracyclic Steroids Bearing a Bicyclo[4.4.1] Ring System as Potent Antiosteoporosis Agents from the Deep-Sea-Derived Fungus Rhizopus sp. W23” (J Nat Prod, 2023)
Calls of active or inactive are those of the source. The calls are words filed in the database; no cut-off is given here.

Assays:
NCI-H460 = assay: Antiproliferative activity against human NCI-H460 cells by MTT assay; type: functional, cell-based
NCI-H1299 = assay: Antiproliferative activity against human NCI-H1299 cells by MTT assay; type: functional, cell-based
MCF7 = assay: Antiproliferative activity against human MCF7 cells by MTT assay; type: functional, cell-based
BGC-823 = assay: Antiproliferative activity against human BGC-823 cells by MTT assay; type: functional, cell-based
HL-60 = assay: Antiproliferative activity against human HL-60 cells by MTT assay; type: functional, cell-based
[1] = Antiproliferative activity against human SKGT4 cells by MTT assay; type: functional, cell-based
[2] = Antiproliferative activity against human QGY-7701 cells by MTT assay; type: functional, cell-based; details: QGY7701
K562 = assay: Antiproliferative activity against human K562 cells by MTT assay; type: functional, cell-based
HCT-116 = assay: Antiproliferative activity against human HCT-116 cells by MTT assay; type: functional, cell-based
BMSC [3] = assay: (§1) Anti-osteoporosis activity against C57BL/6J mouse BMSC cells assessed as increase in osteogenic mineralization incubated for 14 days by Alizarin Red S staining based analysis; type: functional; details: time 14.0 day
[4] = as §1; type: functional; details: 336 h, time 14 day, read-out: MEC
A-431 = assay: Antiproliferative activity against human A-431 cells by MTT assay; type: functional, cell-based
A549 = assay: Antiproliferative activity against human A549 cells by MTT assay; type: functional, cell-based
[5] = Inhibition of adipogenic differentiation in C57BL/6J mouse BMSC cells at 5 uM measured after 6 days by Oil Red O staining based light microscopy; type: functional; details: 144 h, time 6 day
PC-3 = assay: Antiproliferative activity against human PC-3 cells by MTT assay; type: functional, cell-based
KYSE-450 = assay: Antiproliferative activity against human KYSE-450 cells by MTT assay; type: functional, cell-based
U2OS = assay: Antiproliferative activity against human U2OS cells by MTT assay; type: functional, cell-based
BMSC [6] = assay: Anti-osteoporosis activity against C57BL/6J mouse BMSC cells assessed as increase in matrix mineralization of osteoblasts at 20 uM incubated for 14 days by Alizarin Red S staining based analysis; type: functional, cell-based; details: time 14.0 day
HepG2 = assay: Antiproliferative activity against human HepG2 cells by MTT assay; type: functional, cell-based
PANC-1 = assay: Antiproliferative activity against human PANC-1 cells by MTT assay; type: functional, cell-based
A-375 = assay: Antiproliferative activity against human A-375 cells by MTT assay; type: functional, cell-based
MDA-MB-231 = assay: Antiproliferative activity against human MDA-MB-231 cells by MTT assay; type: functional, cell-based
Protein smoothened = Protein smoothened (Homo sapiens, UniProt Q99835); assay: Agonist activity at SMO receptor (unknown origin)
[7] = Inhibition of adipogenic differentiation in C57BL/6J mouse BMSC cells at 20 uM measured after 6 days by Oil Red O staining based light microscopy; type: functional; details: 144 h, time 6 day

Sequence of Protein smoothened (Q99835 whole entry): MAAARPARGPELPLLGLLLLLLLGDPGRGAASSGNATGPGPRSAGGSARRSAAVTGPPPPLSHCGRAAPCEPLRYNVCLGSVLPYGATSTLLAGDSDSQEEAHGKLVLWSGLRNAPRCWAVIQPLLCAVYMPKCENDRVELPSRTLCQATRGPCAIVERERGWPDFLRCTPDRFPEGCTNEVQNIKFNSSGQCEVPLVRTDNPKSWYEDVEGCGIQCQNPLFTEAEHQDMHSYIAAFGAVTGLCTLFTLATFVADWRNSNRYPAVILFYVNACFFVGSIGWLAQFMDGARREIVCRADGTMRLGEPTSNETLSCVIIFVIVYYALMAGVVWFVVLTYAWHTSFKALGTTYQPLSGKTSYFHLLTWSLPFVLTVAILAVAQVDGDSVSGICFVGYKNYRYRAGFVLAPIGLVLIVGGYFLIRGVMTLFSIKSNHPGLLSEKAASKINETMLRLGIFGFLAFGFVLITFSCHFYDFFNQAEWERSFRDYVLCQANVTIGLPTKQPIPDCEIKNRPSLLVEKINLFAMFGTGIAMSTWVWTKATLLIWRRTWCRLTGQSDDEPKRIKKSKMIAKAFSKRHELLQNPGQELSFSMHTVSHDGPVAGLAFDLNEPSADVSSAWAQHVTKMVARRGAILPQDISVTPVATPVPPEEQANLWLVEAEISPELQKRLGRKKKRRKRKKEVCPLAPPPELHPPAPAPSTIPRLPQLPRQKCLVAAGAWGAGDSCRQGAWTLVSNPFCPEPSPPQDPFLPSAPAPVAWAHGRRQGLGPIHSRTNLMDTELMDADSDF

IC50 (NCI-H460) [µM]	IC50 (NCI-H1299) [µM]	IC50 (MCF7) [µM]	IC50 (BGC-823) [µM]	IC50 (HL-60) [µM]	IC50 (K562) [µM]	IC50 (HCT-116) [µM]	IC50 (A-431) [µM]	IC50 (A549) [µM]	IC50 (PC-3) [µM]	IC50 (U2OS) [µM]	IC50 (HepG2) [µM]	IC50 (PANC-1) [µM]	IC50 (A-375) [µM]	IC50 (MDA-MB-231) [µM]	Structure (SMILES)	IC50 [1] [µM]	IC50 [2] [µM]	Activity (BMSC [3])	minimal effective concentration [4] [µM]	IC50 (KYSE-450) [µM]	other results
> 20	> 20	> 20	> 20	> 20	> 20	> 20	> 20	> 20	> 20	> 20	> 20	> 20	> 20	> 20	C/C(=C\[C@@H](O)[C@H](C)O)[C@H]1CC[C@H]2C3=CC(=O)[C@H]4CC(=CC[C@H](O)C4)[C@H]3CC[C@]12C [NEOCYCLOCITRINOL C]	> 20	> 20	Dose-Dependent Effect	5	> 20	inhibition at 5 µM [5]: 78%; Activity (BMSC [6]): Active
–	–	–	–	–	–	–	–	–	–	–	–	–	–	–	c1ccc2c(Oc3nc(Nc4ccc(N5CCOCC5)cc4)c4ncn(C5CCCCC5)c4n3)cccc2c1 [PURMORPHAMINE]	–	–	–	–	–	EC50 (Protein smoothened): 1 µM
> 20	> 20	> 20	> 20	> 20	> 20	> 20	> 20	> 20	> 20	> 20	> 20	> 20	> 20	> 20	C/C(=C/[C@H](O)[C@H](C)O)[C@H]1CC[C@H]2C3=CC(=O)[C@H]4CC(=CC[C@H](O)C4)[C@H]3CC[C@]12C	> 20	> 20	Dose-Dependent Effect	20	> 20	inhibition at 20 µM [7]: 65%; Activity (BMSC [6]): Active
> 20	> 20	> 20	> 20	> 20	> 20	> 20	> 20	> 20	> 20	> 20	> 20	> 20	> 20	> 20	C/C(=C\[C@H](O)[C@H](C)O)[C@H]1CC[C@H]2C3=CC(=O)[C@H]4CC(=CC[C@H](O)C4)[C@H]3CC[C@]12C [NEOCYCLOCITRINOL B]	> 20	> 20	–	–	> 20	–
